Bounds are passed on as bounds.

One experiment deals with Daudi cells. The experiment is described as follows: Cell proliferation experiment, Daudi. Type of experiment: cell-based, human. The note with it: Homo sapiens, Daudi, Daudi cells; read-out: Inhibitory activity IC50 on Daudi. The method in brief:
(§1)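 Viability read by Alamar blue. 72 h treatment, 5-fold dilution series, duplicates; log-phase cells in 96-well plates; IC50 by curve fit.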
For `CNC(=O)c1ccccc1Nc1nc(Nc2ccc(C3CCN(C(=O)N[C@H]4CC[C@@H](NCCOCCC#Cc5ccc6c(c5)CN(C5CCC(=O)NC5=O)C6=O)CC4)CC3)cc2)ncc1Cl` (stereo partly drawn) [UB-181122], the IC50 lay within 100 to 1000 nM.

Regarding `CNC(=O)c1ccccc1Nc1nc(Nc2ccc(N3CCN(C(=O)NC4CCC(N[C@H]5CC[C@@H](OCC#Cc6ccc7c(c6)CN(C6CCC(=O)NC6=O)C7=O)CC5)CC4)CC3)cc2)ncc1Cl` (stereo partly drawn) [UB-181127], the IC50 was in the range of 10 to 100 nM.

On to `CNC(=O)c1ccccc1Nc1nc(Nc2ccc(N3CCN(C(=O)NC4CCC(NC5CCC(OCC#Cc6ccc7c(c6)CN(C6CCC(=O)NC6=O)C7=O)CC5)CC4)CC3)cc2)ncc1Cl` (stereo not drawn) [UB-181131], for which the IC50 lay within 100 to 1000 nM.

Take `CNC(=O)c1ccccc1Nc1nc(Nc2ccc(C3CCN(C(=O)N[C@H]4CC[C@H](NCCC#Cc5ccc6c(c5)CN(C5CCC(=O)NC5=O)C6=O)CC4)CC3)cc2)ncc1Cl` (stereo partly drawn) [UB-181137]: the IC50 is 100 to 1000 nM.

Turning to `CNC(=O)c1ccccc1Nc1nc(Nc2ccc(C3CCN(C(=O)N[C@H]4CC[C@H](NCCC#Cc5cccc6c5CN(C5CCC(=O)NC5=O)C6=O)CC4)CC3)cc2)ncc1Cl` (stereo partly drawn) [UB-181138], the 50% inhibitory concentration (IC50) fell in the range of 100 to 1000 nM.

`CNC(=O)c1ccccc1Nc1nc(Nc2ccc(N3CCN(C(=O)N[C@H]4CC[C@@H](NCCOCCC#Cc5cccc6c5CN(C5CCC(=O)NC5=O)C6=O)CC4)CC3)nc2)ncc1Cl` (stereo partly drawn) [UB-181141]: the IC50 was in the range of 100 to 1000 nM.

The test system of another experiment is PC-3. Description: Cell proliferation experiment, PC-3. Type of experiment: cell-based, human. The note with it: Homo sapiens, PC-3, PC-3 cells; read-out: Inhibitory activity IC50 on PC-3. In a few lines: as §1
Take `CNC(=O)c1ccccc1Nc1nc(Nc2ccc(C3CCN(C(=O)N[C@H]4CC[C@@H](NCCOCCC#Cc5ccc6c(c5)CN(C5CCC(=O)NC5=O)C6=O)CC4)CC3)cc2)ncc1Cl` (stereo partly drawn) [UB-181122]: the IC50 was 100 to 1000 nM.

Turning to `CNC(=O)c1ccccc1Nc1nc(Nc2ccc(N3CCN(C(=O)NC4CCC(N[C@H]5CC[C@@H](OCC#Cc6ccc7c(c6)CN(C6CCC(=O)NC6=O)C7=O)CC5)CC4)CC3)cc2)ncc1Cl` (stereo partly drawn) [UB-181127], the concentration for half-maximal inhibition (IC50) lay within 10 to 100 nM.

On to `CNC(=O)c1ccccc1Nc1nc(Nc2ccc(N3CCN(C(=O)NC4CCC(NC5CCC(OCC#Cc6ccc7c(c6)CN(C6CCC(=O)NC6=O)C7=O)CC5)CC4)CC3)cc2)ncc1Cl` (stereo not drawn) [UB-181131], for which the IC50 was over 1000 nM.

As to `CNC(=O)c1ccccc1Nc1nc(Nc2ccc(C3CCN(C(=O)N[C@H]4CC[C@H](NCCC#Cc5ccc6c(c5)CN(C5CCC(=O)NC5=O)C6=O)CC4)CC3)cc2)ncc1Cl` (stereo partly drawn) [UB-181137], the IC50 fell in the range of 10 to 100 nM.

Turning to `CNC(=O)c1ccccc1Nc1nc(Nc2ccc(C3CCN(C(=O)N[C@H]4CC[C@H](NCCC#Cc5cccc6c5CN(C5CCC(=O)NC5=O)C6=O)CC4)CC3)cc2)ncc1Cl` (stereo partly drawn) [UB-181138], the half-maximal inhibitory concentration (IC50) is 10 to 100 nM.

In the case of `CNC(=O)c1ccccc1Nc1nc(Nc2ccc(N3CCN(C(=O)N[C@H]4CC[C@@H](NCCOCCC#Cc5cccc6c5CN(C5CCC(=O)NC5=O)C6=O)CC4)CC3)nc2)ncc1Cl` (stereo partly drawn) [UB-181141], the half-inhibitory concentration (IC50) was 100 to 1000 nM.

The test system of a further experiment is MDA-MB-231 cells. Description: Cell proliferation experiment, MDA-MB-231. Type of experiment: cell-based, human. The note with it: Homo sapiens, MDA-MB-231, MDA-MB-231 cells; read-out: Inhibitory activity IC50 on MDA-MB-231. The method in brief: as §1
As to `CNC(=O)c1ccccc1Nc1nc(Nc2ccc(C3CCN(C(=O)N[C@H]4CC[C@@H](NCCOCCC#Cc5ccc6c(c5)CN(C5CCC(=O)NC5=O)C6=O)CC4)CC3)cc2)ncc1Cl` (stereo partly drawn) [UB-181122], the 50% inhibitory concentration (IC50) was 100 to 1000 nM.

As to `CNC(=O)c1ccccc1Nc1nc(Nc2ccc(N3CCN(C(=O)NC4CCC(N[C@H]5CC[C@@H](OCC#Cc6ccc7c(c6)CN(C6CCC(=O)NC6=O)C7=O)CC5)CC4)CC3)cc2)ncc1Cl` (stereo partly drawn) [UB-181127], the IC50 lay in the range of 10 to 100 nM.

For `CNC(=O)c1ccccc1Nc1nc(Nc2ccc(N3CCN(C(=O)NC4CCC(NC5CCC(OCC#Cc6ccc7c(c6)CN(C6CCC(=O)NC6=O)C7=O)CC5)CC4)CC3)cc2)ncc1Cl` (stereo not drawn) [UB-181131], the 50% inhibitory concentration (IC50) is over 1000 nM.

For the compound `CNC(=O)c1ccccc1Nc1nc(Nc2ccc(C3CCN(C(=O)N[C@H]4CC[C@H](NCCC#Cc5ccc6c(c5)CN(C5CCC(=O)NC5=O)C6=O)CC4)CC3)cc2)ncc1Cl` (stereo partly drawn) [UB-181137], the IC50 fell in the range of 100 to 1000 nM.

With `CNC(=O)c1ccccc1Nc1nc(Nc2ccc(C3CCN(C(=O)N[C@H]4CC[C@H](NCCC#Cc5cccc6c5CN(C5CCC(=O)NC5=O)C6=O)CC4)CC3)cc2)ncc1Cl` (stereo partly drawn) [UB-181138], the IC50 was 100 to 1000 nM.

Consider `CNC(=O)c1ccccc1Nc1nc(Nc2ccc(N3CCN(C(=O)N[C@H]4CC[C@@H](NCCOCCC#Cc5cccc6c5CN(C5CCC(=O)NC5=O)C6=O)CC4)CC3)nc2)ncc1Cl` (stereo partly drawn) [UB-181141], for which the half-inhibitory concentration (IC50) was in the range of 100 to 1000 nM.

The test system of a further experiment is MV4;11 cells. The experiment is described as follows: Cell proliferation experiment (Alamar blue, 72 h), MV4;11. It counts as cell-based, human. The note with it: Homo sapiens, MV4-11, MV4;11 cells; read-out: Inhibitory activity IC50 on MV4;11. The method in brief: as §1
For `CNC(=O)c1ccccc1Nc1nc(Nc2ccc(C3CCN(C(=O)N[C@H]4CC[C@@H](NCCOCCC#Cc5ccc6c(c5)CN(C5CCC(=O)NC5=O)C6=O)CC4)CC3)cc2)ncc1Cl` (stereo partly drawn) [UB-181122], the IC50 was under 10 nM.

In the case of `CNC(=O)c1ccccc1Nc1nc(Nc2ccc(N3CCN(C(=O)NC4CCC(N[C@H]5CC[C@@H](OCC#Cc6ccc7c(c6)CN(C6CCC(=O)NC6=O)C7=O)CC5)CC4)CC3)cc2)ncc1Cl` (stereo partly drawn) [UB-181127], the IC50 is under 10 nM.

On to `CNC(=O)c1ccccc1Nc1nc(Nc2ccc(N3CCN(C(=O)NC4CCC(NC5CCC(OCC#Cc6ccc7c(c6)CN(C6CCC(=O)NC6=O)C7=O)CC5)CC4)CC3)cc2)ncc1Cl` (stereo not drawn) [UB-181131], for which the 50% inhibitory concentration (IC50) was 10 to 100 nM.

Consider `CNC(=O)c1ccccc1Nc1nc(Nc2ccc(C3CCN(C(=O)N[C@H]4CC[C@H](NCCC#Cc5ccc6c(c5)CN(C5CCC(=O)NC5=O)C6=O)CC4)CC3)cc2)ncc1Cl` (stereo partly drawn) [UB-181137], for which the IC50 is under 10 nM.

Turning to `CNC(=O)c1ccccc1Nc1nc(Nc2ccc(C3CCN(C(=O)N[C@H]4CC[C@H](NCCC#Cc5cccc6c5CN(C5CCC(=O)NC5=O)C6=O)CC4)CC3)cc2)ncc1Cl` (stereo partly drawn) [UB-181138], the IC50 is under 10 nM.

As to `CNC(=O)c1ccccc1Nc1nc(Nc2ccc(N3CCN(C(=O)N[C@H]4CC[C@@H](NCCOCCC#Cc5cccc6c5CN(C5CCC(=O)NC5=O)C6=O)CC4)CC3)nc2)ncc1Cl` (stereo partly drawn) [UB-181141], the concentration for half-maximal inhibition (IC50) is under 10 nM.

The test system of the next experiment is NCIH82 cells. Description: Cell proliferation experiment, NCI-H82. The note with it: Homo sapiens, NCI-H82, NCI-H82 cells; read-out: Inhibitory activity IC50 on NCI-H82. Type of experiment: cell-based, human. The method in brief:
as §1
Consider `CNC(=O)c1ccccc1Nc1nc(Nc2ccc(C3CCN(C(=O)N[C@H]4CC[C@@H](NCCOCCC#Cc5ccc6c(c5)CN(C5CCC(=O)NC5=O)C6=O)CC4)CC3)cc2)ncc1Cl` (stereo partly drawn) [UB-181122], for which the IC50 is 100 to 1000 nM.

`CNC(=O)c1ccccc1Nc1nc(Nc2ccc(N3CCN(C(=O)NC4CCC(N[C@H]5CC[C@@H](OCC#Cc6ccc7c(c6)CN(C6CCC(=O)NC6=O)C7=O)CC5)CC4)CC3)cc2)ncc1Cl` (stereo partly drawn) [UB-181127]: the IC50 fell in the range of 10 to 100 nM.

Turning to `CNC(=O)c1ccccc1Nc1nc(Nc2ccc(N3CCN(C(=O)NC4CCC(NC5CCC(OCC#Cc6ccc7c(c6)CN(C6CCC(=O)NC6=O)C7=O)CC5)CC4)CC3)cc2)ncc1Cl` (stereo not drawn) [UB-181131], the concentration for half-maximal inhibition (IC50) was 10 to 100 nM.

In the case of `CNC(=O)c1ccccc1Nc1nc(Nc2ccc(C3CCN(C(=O)N[C@H]4CC[C@H](NCCC#Cc5ccc6c(c5)CN(C5CCC(=O)NC5=O)C6=O)CC4)CC3)cc2)ncc1Cl` (stereo partly drawn) [UB-181137], the IC50 fell in the range of 100 to 1000 nM.

Consider `CNC(=O)c1ccccc1Nc1nc(Nc2ccc(C3CCN(C(=O)N[C@H]4CC[C@H](NCCC#Cc5cccc6c5CN(C5CCC(=O)NC5=O)C6=O)CC4)CC3)cc2)ncc1Cl` (stereo partly drawn) [UB-181138], for which the half-maximal inhibitory concentration (IC50) was in the range of 10 to 100 nM.

As for `CNC(=O)c1ccccc1Nc1nc(Nc2ccc(N3CCN(C(=O)N[C@H]4CC[C@@H](NCCOCCC#Cc5cccc6c5CN(C5CCC(=O)NC5=O)C6=O)CC4)CC3)nc2)ncc1Cl` (stereo partly drawn) [UB-181141], the IC50 lay within 100 to 1000 nM.

Source of the values: patent US20230210999A1, “TARGETED PROTEASE DEGRADATION (TED) PLATFORM” (EUBULUS BIOTHERAPEUTICS INC., priority 2020, published 2023).
